Values of other authors, collected in US6462083B1, “Suppository base” (priority 2001, dated 2002).

System: blood flow to the site of administration
Conditions: laser Doppler imaging; no species, dose or data printed

## CCCCCCCC/C=C\CCCCCCCCCCCC(=O)O [Erucic acid, (Z)-13-Docosenoic acid]
  blood flow to the site of administration: enhance blood flow to the site of administration
